# Entries after “also recorded” stand apart in the source; their conditions may differ.
# Legend:
# [1] = Phase-1 drug-drug interaction study, plasma PK in healthy volunteers
# Experimental: A drug-drug interaction study (DDI) study is a study designed to investigate whether a drug alters the pharmacokinetics of another drug or drugs or their metabolites.
# Compound (III) Subjects received 800 mg of Compound (III) once daily from Days 1-3, Days 11-13, and Days 21-23. PK blood samples for determination of Compound (III) and metabolite concentrations were collected in reference to the Day 3, Day 13, and Day 23 doses.
# Simeprevir—Subjects received 150 mg of Simeprevir (SMV) once daily from Days 4-23. PK blood samples for determination of SMV concentrations were collected in reference to the Day 10, Day 13, Day 20, and Day 23 doses.
# Odalasvir—Subjects received a loading dose of 150 mg on Day 14, and 50 mg of Odalasvir once daily from Days 15-23. PK blood samples for determination of Odalasvir concentrations were collected in reference to the Day 20 and Day 23 doses.
# Compound (III)—Subjects received 800 mg of Compound (III) once daily from Days 1-3, Days 11-13 and Days 21-23. PK blood samples for determination of Compound (III) and metabolite concentrations were collected in reference to the Day 3, Day 13, and Day 23 doses.
# Simeprevir—Subjects receive 150 mg of SMV once daily from Days 4-23. PK blood samples for determination of SMV concentrations were collected in reference to the Day 20 and Day 23 doses.
# Odalasvir—Subjects receive a loading dose of 150 mg on Day 4, and 50 mg of Odalasvir once daily from Days 5-23. PK blood samples for determination of Odalasvir concentrations were collected in reference to the Day 10, Day 13, Day 20, and Day 23 doses.
# A primary objective was to evaluate the effect of multiple oral doses of Odalasvir (alone), Simeprevir (alone), and Odalasvir and Simeprevir on the multiple oral dose PK of Compound (III) (and certain metabolites thereof, such as the major metabolites in systemic circulation) in healthy volunteers. Other objectives were to evaluate the safety and tolerability of multiple oral doses of Compound (III) when administered alone and in combination with single and multiple oral doses of Odalasvir and/or Simeprevir in healthy volunteers; to determine the potential effect of Compound of Compound (III) and/or Odalasvir on the steady-state PK of Simeprevir in healthy volunteers; to determine the potential effect of Compound of Compound (III) and/or Simeprevir on the steady state PK of Odalasvir in healthy volunteers.
# Various other PK parameters were estimated including: […], t1/2, Tmax, Tlast, CL/F, Vz/F, and λz.
# Odalasvir: 150 mg loading dose; 50 mg for the remainder of the study period.
# [2] = biological target: P-gp (Homo sapiens, UniProt P08183); conditions: efflux transporter; cited from earlier work
# [3] = biological target: T1, BCRP (Homo sapiens, UniProt Q9UNQ0); conditions: efflux transporter; cited from earlier work
# T1 sequence (Q9UNQ0 1-655): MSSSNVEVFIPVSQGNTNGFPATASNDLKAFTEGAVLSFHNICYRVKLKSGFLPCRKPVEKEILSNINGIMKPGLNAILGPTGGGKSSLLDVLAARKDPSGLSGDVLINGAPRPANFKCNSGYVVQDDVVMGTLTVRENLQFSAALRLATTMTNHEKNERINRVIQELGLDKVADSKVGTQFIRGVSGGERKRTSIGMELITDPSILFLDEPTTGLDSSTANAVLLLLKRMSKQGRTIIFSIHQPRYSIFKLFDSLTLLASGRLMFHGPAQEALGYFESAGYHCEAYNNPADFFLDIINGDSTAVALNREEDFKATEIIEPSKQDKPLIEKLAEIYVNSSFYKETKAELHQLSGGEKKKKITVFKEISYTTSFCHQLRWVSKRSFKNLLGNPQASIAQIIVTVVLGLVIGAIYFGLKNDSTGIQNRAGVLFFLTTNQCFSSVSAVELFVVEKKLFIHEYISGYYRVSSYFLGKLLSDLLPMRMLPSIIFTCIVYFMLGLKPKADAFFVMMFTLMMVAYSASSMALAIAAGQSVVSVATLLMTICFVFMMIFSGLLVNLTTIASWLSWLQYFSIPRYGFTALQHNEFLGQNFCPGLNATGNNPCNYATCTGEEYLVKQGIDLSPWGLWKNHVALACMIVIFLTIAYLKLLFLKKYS
# [4] = biological target: T2, OATP1B3 (Homo sapiens, UniProt Q9NPD5); conditions: uptake transporter; cited from earlier work
# T2 sequence (Q9NPD5 1-702): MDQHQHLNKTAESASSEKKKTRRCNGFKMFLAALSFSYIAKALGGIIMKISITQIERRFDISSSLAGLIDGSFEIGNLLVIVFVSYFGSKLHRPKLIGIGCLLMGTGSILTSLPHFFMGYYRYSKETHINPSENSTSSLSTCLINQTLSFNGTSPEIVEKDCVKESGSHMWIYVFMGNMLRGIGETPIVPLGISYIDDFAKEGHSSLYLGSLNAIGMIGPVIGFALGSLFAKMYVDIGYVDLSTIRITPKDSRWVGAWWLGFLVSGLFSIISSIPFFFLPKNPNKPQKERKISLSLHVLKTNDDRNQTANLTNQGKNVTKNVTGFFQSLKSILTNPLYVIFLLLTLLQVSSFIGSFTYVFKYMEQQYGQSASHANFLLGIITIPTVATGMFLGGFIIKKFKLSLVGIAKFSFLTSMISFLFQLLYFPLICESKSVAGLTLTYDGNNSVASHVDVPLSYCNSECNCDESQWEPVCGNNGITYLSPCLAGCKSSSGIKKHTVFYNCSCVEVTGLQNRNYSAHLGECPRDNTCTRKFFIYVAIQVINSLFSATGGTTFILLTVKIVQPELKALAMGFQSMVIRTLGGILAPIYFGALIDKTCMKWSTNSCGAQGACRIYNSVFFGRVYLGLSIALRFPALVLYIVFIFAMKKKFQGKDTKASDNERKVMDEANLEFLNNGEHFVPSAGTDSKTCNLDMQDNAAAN
# P-gp, sequence (P08183 whole entry): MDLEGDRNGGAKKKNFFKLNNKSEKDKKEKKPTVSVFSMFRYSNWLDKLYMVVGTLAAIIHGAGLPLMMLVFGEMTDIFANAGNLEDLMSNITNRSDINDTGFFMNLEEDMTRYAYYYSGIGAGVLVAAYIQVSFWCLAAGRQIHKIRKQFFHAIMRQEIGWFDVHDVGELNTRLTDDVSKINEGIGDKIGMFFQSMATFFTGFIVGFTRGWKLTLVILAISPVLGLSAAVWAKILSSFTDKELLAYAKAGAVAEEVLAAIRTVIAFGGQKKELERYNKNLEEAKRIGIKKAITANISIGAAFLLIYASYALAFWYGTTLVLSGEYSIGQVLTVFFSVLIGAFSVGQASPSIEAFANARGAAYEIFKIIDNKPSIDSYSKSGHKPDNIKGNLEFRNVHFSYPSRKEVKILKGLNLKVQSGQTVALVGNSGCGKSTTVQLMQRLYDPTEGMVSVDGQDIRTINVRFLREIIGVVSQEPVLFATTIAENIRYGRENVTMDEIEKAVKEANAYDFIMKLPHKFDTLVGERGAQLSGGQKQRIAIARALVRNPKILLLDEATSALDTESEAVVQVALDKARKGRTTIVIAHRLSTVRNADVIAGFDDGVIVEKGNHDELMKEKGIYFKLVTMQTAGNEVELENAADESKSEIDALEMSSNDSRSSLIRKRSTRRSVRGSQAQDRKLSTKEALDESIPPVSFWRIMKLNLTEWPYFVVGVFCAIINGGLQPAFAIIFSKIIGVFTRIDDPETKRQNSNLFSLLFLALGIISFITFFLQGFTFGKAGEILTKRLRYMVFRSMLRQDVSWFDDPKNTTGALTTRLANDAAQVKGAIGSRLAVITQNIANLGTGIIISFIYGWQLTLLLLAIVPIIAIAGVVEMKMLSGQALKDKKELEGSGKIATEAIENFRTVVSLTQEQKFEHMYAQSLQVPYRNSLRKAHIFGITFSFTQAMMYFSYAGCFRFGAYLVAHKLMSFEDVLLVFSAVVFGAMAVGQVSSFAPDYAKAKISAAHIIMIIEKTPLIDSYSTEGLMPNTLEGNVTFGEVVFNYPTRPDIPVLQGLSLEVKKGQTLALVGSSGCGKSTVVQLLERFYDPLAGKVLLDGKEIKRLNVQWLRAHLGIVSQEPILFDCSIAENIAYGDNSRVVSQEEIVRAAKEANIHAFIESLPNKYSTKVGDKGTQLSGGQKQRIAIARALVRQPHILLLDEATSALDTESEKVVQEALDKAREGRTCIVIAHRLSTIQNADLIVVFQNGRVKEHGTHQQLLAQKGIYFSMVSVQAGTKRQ
SMILES,exposure increase caused by SMV ([1]; DDI study results),"exposure increase, effect of the three Compounds ([1]; DDI study results)",increase of exposure with the combination of the three drugs ([1]; human in vivo study),effect of Compound (III) on exposure / bioavailability ([1]; human subjects),in vitro inhibition of P-gp [2],in vitro inhibition of BCRP [3],in vitro inhibition of OATP1B3 [4],exposure increase caused by Odalasvir ([1]; DDI study results),"increase of exposure with the combination of the three drugs ([1]; both, human, in vivo)","bioavailability of Compound (III) when SMV and ODV are co-administered, compared to Compound (III) alone ([1]; human subjects)"
"COC(=O)N[C@H](C(=O)N1[C@H](c2nc3cc(-c4cc5ccc4CCc4ccc(c(-c6ccc7[nH]c([C@@H]8C[C@@H]9CCCC[C@@H]9N8C(=O)[C@@H](NC(=O)OC)C(C)C)nc7c6)c4)CC5)ccc3[nH]2)C[C@@H]2CCCC[C@@H]21)C(C)C [ODV, methyl [(2S)-1-[(2S,3aS,7aS)-2-[6-[11-[2-[(2S,3aS,7aS)-1-[(2S)-2-[(methoxycarbonyl)amino]-3-methylbutanoyl]octahydro-1H-indol-2-yl]-1H-benzimidazol-6-yl]tricyclo[8.2.2.2^4,7]hexadeca-1(12),4,6,10,13,15-hexaen-5-yl]-1H-benzimidazol-2-yl]octahydro-1H-indol-1-yl]-3-methyl-1-oxobutan-2-yl]carbamate]",1.6 ×,1.5 ×,1.5 times,no apparent effect; also recorded: does not alter,moderate inhibition,no inhibition,no inhibition,,,
CC(C)OC(=O)C(C)N[P@](=O)(OC[C@@]1(F)O[C@@H](n2ccc(=O)[nH]c2=O)[C@](C)(O)[C@@H]1O)Oc1ccccc1 (stereo in doubt) [Compound (III)],3 ×,,,,no in vitro inhibition,no in vitro inhibition,no in vitro inhibition,4 ×,7-8 times,approximately 8 fold

# From US20180021361A1, “COMBINATION DRUG TREATMENT FOR HEPATITIS C INFECTION” (JANSSEN PHARMACEUTICALS, INC., priority 2016, published 2018)
